Data set [1] concerns the target T1, Mitogen-activated protein kinase; ERK1/ERK2 (Homo sapiens) (UniProt P27361+P28482). The data set is described as follows: Inhibition of H2O2-induced p44/42 MAPK phosphorylation in human SH-SY5Y cells at 0.1 uM. It counts as cell-based.
Data set [2] has as its target Eukaryotic translation initiation factor 2 subunit 1 (Homo sapiens) (UniProt P05198). The data set is described as follows: Inhibition of H2O2-induced eIF2alpha phosphorylation in human SH-SY5Y cells at 0.1 uM. The data set is classed as cell-based.
The subject of data set [3] is SH-SY5Y. The data set is described as follows: Cytoprotective activity against H2O2-induced oxidative stress in human SH-SY5Y cells assessed as cell viability at 0.1 uM preincubated for 24 hrs followed by H2O2 addition and measured after 1 hr by MTT assay (reference value: 37.88 +/- 8.52%). It counts as functional. The settings on record: read-out: Activity. Background: Tetrazolium assays rely on reduction of a dye to a coloured formazan, in cell work by metabolically active cells.

For data set [4], the target named is T2, MAP kinase p38 (Homo sapiens) (UniProt O15264+Q15759+Q16539+P53778). The data set is described as follows: Inhibition of H2O2-induced p38 MAPK phosphorylation in human SH-SY5Y cells at 0.1 uM. The data set is classed as cell-based.
The test system of data set [5] is SH-SY5Y. The data set is described as follows: Cytoprotective activity against H2O2-induced apoptosis in human SH-SY5Y cells assessed as decrease in Bax levels at 0.1 uM preincubated for 24 hrs followed by H2O2 addition measured after 1 hr by Western blot analysis. The data set is classed as functional, cell-based.
Data set [6] concerns SH-SY5Y. The data set is described as follows: Cytoprotective activity against H2O2-induced oxidative stress in human SH-SY5Y cells assessed as cell viability at 10 uM preincubated for 24 hrs followed by H2O2 addition and measured after 1 hr by MTT assay (reference value: 37.88 +/- 8.52%). The settings on record: read-out: Activity. It counts as functional.
Data set [7] concerns SH-SY5Y. The data set is described as follows: Cytoprotective activity against H2O2-induced apoptosis in human SH-SY5Y cells assessed as relative cleaved PARP levels at 0.1 uM (reference value: 0.725 +/- 0.06). It counts as functional.
In data set [8] the test system is SH-SY5Y. The data set is described as follows: Cytotoxicity against human SH-SY5Y cells at 1 to 10 uM after 24 hrs by MTT assay. The data set is classed as cell-based.
The subject of data set [9] is SH-SY5Y. Put plainly: Cytoprotective activity against H2O2-induced apoptosis in human SH-SY5Y cells assessed as relative cleaved caspase-3 levels at 0.1 uM (reference value: 0.875 +/- 0.035). The data set is classed as functional.
For data set [10], the system named is SH-SY5Y. Put plainly: Cytoprotective activity against H2O2-induced oxidative stress in human SH-SY5Y cells assessed as increase in cell viability preincubated for 24 hrs followed by H2O2 addition and measured after 1 hr by MTT assay. The data set is classed as functional, cell-based.
The subject of data set [11] is SH-SY5Y. The data set is described as follows: Cytoprotective activity against H2O2-induced apoptosis in human SH-SY5Y cells assessed as relative cleaved caspase-7 levels at 0.1 uM (reference value: 1.025 +/- 0.120). The data set is classed as functional.
The subject of data set [12] is SH-SY5Y. The data set is described as follows: Cytoprotective activity against H2O2-induced oxidative stress in human SH-SY5Y cells assessed as cell viability at 1 uM preincubated for 24 hrs followed by H2O2 addition and measured after 1 hr by MTT assay (reference value: 37.88 +/- 8.52%). The settings on record: read-out: Activity. It counts as functional.
Data set [13] deals with RAC-alpha serine/threonine-protein kinase (Homo sapiens) (UniProt P31749). The data set is described as follows: Induction of Akt phosphorylation in H2O2-treated human SH-SY5Y cells at 1 uM by ELISA. The data set is classed as cell-based. Background: ELISA stands for enzyme-linked immunosorbent assay.
Chain of RAC-alpha serine/threonine-protein kinase (Homo sapiens) (P31749 whole entry): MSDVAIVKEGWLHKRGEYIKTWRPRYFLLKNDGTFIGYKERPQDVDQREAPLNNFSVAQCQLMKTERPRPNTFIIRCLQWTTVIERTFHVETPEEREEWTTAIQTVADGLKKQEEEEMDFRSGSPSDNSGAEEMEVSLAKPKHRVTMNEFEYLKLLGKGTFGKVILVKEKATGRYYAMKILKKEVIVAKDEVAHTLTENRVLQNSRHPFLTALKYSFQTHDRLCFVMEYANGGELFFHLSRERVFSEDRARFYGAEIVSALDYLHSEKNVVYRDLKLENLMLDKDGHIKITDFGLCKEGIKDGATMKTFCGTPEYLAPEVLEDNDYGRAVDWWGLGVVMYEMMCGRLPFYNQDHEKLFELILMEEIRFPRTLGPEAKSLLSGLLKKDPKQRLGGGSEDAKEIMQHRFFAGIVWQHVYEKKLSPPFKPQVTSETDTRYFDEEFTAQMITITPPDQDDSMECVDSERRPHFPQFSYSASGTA
Data set [14] deals with SH-SY5Y. The data set is described as follows: Cytoprotective activity against H2O2-induced apoptosis in human SH-SY5Y cells assessed as relative cleaved PARP levels at 1 uM (reference value: 0.725 +/- 0.06). It counts as functional.
The target in data set [15] is T2, MAP kinase p38 (Homo sapiens). The data set is described as follows: Inhibition of H2O2-induced p38 MAPK phosphorylation in human SH-SY5Y cells at 1 uM. It counts as cell-based.
Data set [16] in a line: Cytoprotective activity against H2O2-induced apoptosis in human SH-SY5Y cells assessed as relative cleaved caspase-7 levels at 1 uM (reference value: 1.025 +/- 0.120).
For data set [17], the system named is SH-SY5Y. The data set is described as follows: Cytoprotective activity against H2O2-induced apoptosis in human SH-SY5Y cells assessed as relative cleaved caspase-3 levels at 1 uM (reference value: 0.875 +/- 0.035). The data set is classed as functional.
For data set [18], the target named is T1, Mitogen-activated protein kinase; ERK1/ERK2 (Homo sapiens). The data set is described as follows: Inhibition of H2O2-induced p44/42 MAPK phosphorylation in human SH-SY5Y cells at 1 uM. The data set is classed as cell-based.
The target of data set [19] is RAC-alpha serine/threonine-protein kinase (Homo sapiens) (UniProt P31749). The data set is described as follows: Induction of Akt phosphorylation in H2O2-treated human SH-SY5Y cells assessed as increase in pBad levels at 1 uM by ELISA. The data set is classed as cell-based.
Data set [20] deals with Eukaryotic translation initiation factor 2 subunit 1 (Homo sapiens) (UniProt P05198). The data set is described as follows: Inhibition of H2O2-induced eIF2alpha phosphorylation in human SH-SY5Y cells at 1 uM. The data set is classed as cell-based.
Chain of Eukaryotic translation initiation factor 2 subunit 1 (Homo sapiens) (P05198 whole entry): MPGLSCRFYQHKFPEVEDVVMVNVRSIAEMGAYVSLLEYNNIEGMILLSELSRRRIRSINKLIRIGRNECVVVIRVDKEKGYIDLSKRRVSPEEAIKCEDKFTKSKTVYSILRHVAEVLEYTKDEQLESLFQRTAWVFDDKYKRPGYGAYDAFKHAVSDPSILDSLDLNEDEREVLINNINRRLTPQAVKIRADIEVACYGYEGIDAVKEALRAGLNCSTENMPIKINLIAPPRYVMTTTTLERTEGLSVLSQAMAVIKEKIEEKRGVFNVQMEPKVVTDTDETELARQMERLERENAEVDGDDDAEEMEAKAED
The test system of data set [21] is SH-SY5Y. The data set is described as follows: Cytoprotective activity against H2O2-induced apoptosis in human SH-SY5Y cells assessed as relative Bcl-2 levels at 0.1 uM preincubated for 24 hrs followed by H2O2 addition measured after 1 hr by Western blot analysis (reference value: 2.084 +/- 0.078). It counts as functional. (In western blotting, separated proteins are transferred to a membrane and probed.)

Data set [22] concerns SH-SY5Y. The data set is described as follows: Cytoprotective activity against H2O2-induced apoptosis in human SH-SY5Y cells assessed as increase in Bcl-2/Bax ratio at 0.1 uM preincubated for 24 hrs followed by H2O2 addition measured after 1 hr by Western blot analysis. The data set is classed as functional, cell-based.

Activity calls are given as the source filed them. The calls are words filed in the database; no cut-off is given here.

T1 sequence (P27361 whole entry, looked up): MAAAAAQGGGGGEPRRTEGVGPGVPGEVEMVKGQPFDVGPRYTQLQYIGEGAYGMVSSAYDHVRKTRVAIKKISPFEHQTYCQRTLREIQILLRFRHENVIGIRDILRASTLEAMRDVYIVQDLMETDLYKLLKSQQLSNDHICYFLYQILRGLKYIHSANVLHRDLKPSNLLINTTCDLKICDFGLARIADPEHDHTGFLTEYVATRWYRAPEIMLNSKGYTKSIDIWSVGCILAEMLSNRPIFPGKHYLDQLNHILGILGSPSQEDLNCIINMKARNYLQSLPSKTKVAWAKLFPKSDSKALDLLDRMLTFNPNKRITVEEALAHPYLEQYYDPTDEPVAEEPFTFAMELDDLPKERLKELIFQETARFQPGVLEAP
T1 sequence (P28482 whole entry, looked up): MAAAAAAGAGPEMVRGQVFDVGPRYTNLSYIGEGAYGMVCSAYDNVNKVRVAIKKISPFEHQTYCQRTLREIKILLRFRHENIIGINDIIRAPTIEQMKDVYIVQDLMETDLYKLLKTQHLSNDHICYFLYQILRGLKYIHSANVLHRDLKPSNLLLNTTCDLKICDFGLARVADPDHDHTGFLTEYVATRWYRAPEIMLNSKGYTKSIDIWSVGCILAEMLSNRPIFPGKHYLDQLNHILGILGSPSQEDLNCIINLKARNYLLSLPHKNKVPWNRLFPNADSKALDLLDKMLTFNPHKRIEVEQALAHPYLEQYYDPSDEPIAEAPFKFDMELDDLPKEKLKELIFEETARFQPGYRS

In the case of `COc1cccc(-c2cn3ccnnc3n2)c1`, the inhibition result in data set [1] and in data set [4] was “Active” in each case. The inhibition result in data set [2] is “inactive”. The viability at 0.1 µM in the data set on SH-SY5Y [3] amounted to 73.8%. The result in the data set with SH-SY5Y [5] was Active. The viability at 10 µM with SH-SY5Y [6] worked out at 65%. Besides, the “fold change (FC)” value in the data set on SH-SY5Y [7] amounted to 0.48; in the data set with SH-SY5Y [9] it was 0.595; with SH-SY5Y [11], 0.815. The Activity result in the data set on SH-SY5Y [8] was “Non-Toxic”; in the data set with SH-SY5Y [10], “Dose-dependent effect”. The viability at 1 µM with SH-SY5Y [12] worked out at 62.8%.

Turning to `COc1ccc(-c2nc3nnccn3c2-c2ccc(C)cc2)cc1`, in the data set on SH-SY5Y [3], the viability at 0.1 µM came to 55.3%. Further, the result in data set [13] and in [19] was Active. In the data set on SH-SY5Y [6], the viability at 10 µM turned out to be 63.3%. Also, the “fold change (FC)” value was found to be 0.581 with SH-SY5Y [14], 0.856 in [16] and 0.628 in the data set on SH-SY5Y [17]. For the same molecule, the inhibition result in data set [15] and in data set [18] was “Active” each time. Further, the results for the Activity result in the data set with SH-SY5Y [8] and in the data set with SH-SY5Y [10] were “Non-Toxic” and “Dose-dependent effect”, respectively. Also, in data set [20], the inhibition entry was “inactive”. The viability at 1 µM in the data set on SH-SY5Y [12] stood at 67.4%.

As to `FC(F)(F)c1ccc(-c2cn3ccnnc3n2)cc1`, the “fold change (FC)” value in the data set on SH-SY5Y [21] amounted to 2.923. Also, in data set [2], the inhibition result was “inactive”. For the same molecule, in the data set with SH-SY5Y [3], the viability at 0.1 µM worked out at 85.1%. The inhibition result in data set [4] is “Active”. The outcome with SH-SY5Y [5] and with SH-SY5Y [22] was Active. The viability at 10 µM in the data set with SH-SY5Y [6] was found to be 60.8%. The Activity result is “Non-Toxic” with SH-SY5Y [8] and “Dose-dependent effect” with SH-SY5Y [10]. For the same molecule, the viability at 1 µM in the data set on SH-SY5Y [12] is 59.1%.

Source of the values: ChEMBL document CHEMBL4145470, “Efficient synthesis and first regioselective C-6 direct arylation of imidazo[2,1-c][1,2,4]triazine scaffold and their evaluation in H2O2-induced oxidative stress” (Eur J Med Chem, 2018).
